Source: patent US11957687B2 (REGENERON PHARMACEUTICALS, INC., priority 2019, dated 2024)

What was measured:
HSD17B13 = HSD17B13 (Homo sapiens (Human), UniProt Q7Z5P4); test: HSD17B13 enzymatic inhibition assay (150 nM or 50 nM HSD17B13); assay type: biochemical; conditions: 50 nM HSD17B13; read-out: Inhibition of 50 nM of HSD17B13 IC50
[1] = Microsome stability assay, human liver microsomes; assay type: in vitro ADME; conditions: 1 μM compound, 0.5 mg/mL microsomal protein; for microsomal CLint at 1 h, 1 µM / half-life at 1 h, 1 µM / microsomal CLint at 1 μM / half-life at 1 μM: human, human liver microsomes, pooled, NADPH, 37° C.; for microsomal CLint at 1 h, 1 µM / microsomal CLint at 1 μM: read-out: Microsome Stability Human liver microsomes Cl; for half-life at 1 h, 1 µM / half-life at 1 μM: read-out: Microsome Stability Human liver microsomes T½
Procedure: (§1) Compounds of the disclosure were screened in microsome stability assays. For the screen, test compounds were incubated at 37° C. with either human liver microsomes (Corning; #452117) or mouse liver microsomes (XenoTech; #M1000), pooled from multiple donors, at 1 μM in the presence of a NADPH regenerating system at 0.5 mg/mL microsomal protein. Positive controls included in the assay were testosterone (3A4 substrate), propafenone (2D6) and diclofenac (2C9). Samples were removed at different time points (0, 5, 10, 20, 30 and 60 minutes) and immediately mixed with cold acetonitrile containing internal standard (IS, 200 ng/mL tolbutamide and 200 ng/mL labetalol). Test compounds incubated with microsomes for 60 minutes without the NADPH regenerating system was also included. A single point for each test condition (n=1) was obtained, and samples were analyzed by LC/MS/MS. Disappearance of the test compound was assessed based on peak area ratios of analyte/IS (no standard curve).

[2] = Microsome stability assay, mouse liver microsomes; assay type: in vitro ADME; conditions: 1 μM compound, 0.5 mg/mL microsomal protein; for microsomal CLint at 1 h, 1 µM / half-life at 1 h, 1 µM / microsomal CLint at 1 μM / half-life at 1 μM: mouse, mouse liver microsomes, pooled, NADPH, 37° C.; for microsomal CLint at 1 h, 1 µM / microsomal CLint at 1 μM: read-out: Microsome Stability Mouse liver microsomes Cl; for half-life at 1 h, 1 µM / half-life at 1 μM: read-out: Microsome Stability Mouse liver microsomes T½
Procedure: as §1

Chain of HSD17B13 (Q7Z5P4 other isoform, or with tags, fused parts or gaps): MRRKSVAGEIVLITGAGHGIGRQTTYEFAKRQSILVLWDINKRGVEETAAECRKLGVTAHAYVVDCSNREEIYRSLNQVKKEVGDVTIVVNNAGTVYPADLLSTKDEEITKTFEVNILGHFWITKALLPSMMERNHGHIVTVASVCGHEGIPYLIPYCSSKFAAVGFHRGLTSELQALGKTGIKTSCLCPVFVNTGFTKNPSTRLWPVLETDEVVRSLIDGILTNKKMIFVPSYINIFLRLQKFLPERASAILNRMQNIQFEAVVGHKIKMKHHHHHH

Row | IC50 (HSD17B13) | Microsome Stability Human liver microsomes % Remaining @60 min [1] | microsomal CLint at 1 h, 1 µM [1] | half-life at 1 h, 1 µM [1] | Microsome Stability Mouse liver microsomes % Remaining @60 min [2] | microsomal CLint at 1 h, 1 µM [2] | half-life at 1 h, 1 µM [2] | microsomal CLint at 1 μM [2] | half-life at 1 μM [2] | microsomal CLint at 1 μM [1] | half-life at 1 μM [1] | Structure (SMILES)
1 | 340 nM | 66.40% | 13.2 µL/min/mg | 105 min | 39% | 31 µL/min/mg | 44.7 min | – | – | – | – | COc1ccc2c(c1)Oc1cc(OC)ccc1C2NC(=O)c1ccc(C(F)F)[nH]c1=O [Compound 273, 6-(difluoromethyl)-N-(3,6-dimethoxy-9H-xanthen-9-yl)-2-oxo-1,2-dihydropyridine-3-carboxamide]
2 | 340 nM | 70.70% | 9.82 µL/min/mg | 141 min | 76.40% | – | – | < 9.6 µL/min/mg | > 145 min | – | – | CCC1CCc2cc(O)ccc2C1NC(=O)c1ccc(C(F)(F)F)[nH]c1=O (stereo not shown) [Compound 284, N-(2-ethyl-6-hydroxy-1,2,3,4-tetrahydronaphthalen-1-yl)-2-oxo-6-(trifluoromethyl)-1,2-dihydropyridine-3-carboxamide]
3 | 30 nM | 1.49% | 137 µL/min/mg | 10.1 min | 11.20% | 70.7 µL/min/mg | 19.6 min | – | – | – | – | CCCC1CCc2cc(C)ccc2C1NC(=O)c1ccc(C(F)(F)F)[nH]c1=O (stereo not shown) [Compound 285, N-(6-methyl-2-propyl-1,2,3,4-tetrahydronaphthalen-1-yl)-2-oxo-6-(trifluoromethyl)-1,2-dihydropyridine-3-carboxamide]
4 | 190 nM | 27.10% | 42.9 µL/min/mg | 32.3 min | 38.20% | 29.6 µL/min/mg | 46.9 min | – | – | – | – | CCCC1CCc2cc(Cl)ccc2C1NC(=O)c1ccc(C(F)(F)F)[nH]c1=O (stereo not drawn) [Compound 286, N-(6-chloro-2-propyl-1,2,3,4-tetrahydronaphthalen-l-yl)-2-oxo-6-(trifluoromethyl)-1,2-dihydropyridine-3-carboxamide]
5 | 130 nM | 0.14% | 231 µL/min/mg | 6 min | 33.80% | 37.9 µL/min/mg | 36.5 min | – | – | – | – | CC1CCc2cc(Cl)ccc2C1NC(=O)c1ccc(C(F)(F)F)[nH]c1=O (stereo not shown) [Compound 293, N-(6-chloro-2-methyl-1,2,3,4-tetrahydronaphthalen-1-yl)-2-oxo-6-(trifluoromethyl)-1,2-dihydropyridine-3-carboxamide]
6 | 90 nM | 0.10% | 643 µL/min/mg | 2.15 min | 33.80% | 33.4 µL/min/mg | 41.5 min | – | – | – | – | Cc1ccc2c(c1)CCC(C)C2NC(=O)c1ccc(C(F)(F)F)[nH]c1=O (stereo not shown) [Compound 294, N-(2,6-dimethyl-1,2,3,4-tetrahydronaphthalen-1-yl)-2-oxo-6-(trifluoromethyl)-1,2-dihydropyridine-3-carboxamide]
7 | 100 nM | 1% | 221 µL/min/mg | 6.26 min | 69% | 12.7 µL/min/mg | 110 min | – | – | – | – | CCC1Cc2cc(OC)ccc2C1NC(=O)c1ccc(C(F)(F)F)[nH]c1=O (stereo not shown) [Compound 295, N-(2-ethyl-5-methoxy-2,3-dihydro-1H-inden-1-yl)-2-oxo-6-(trifluoromethyl)-1,2-dihydropyridine-3-carboxamide]
8 | 110 nM | 1.24% | 149 µL/min/mg | 9.3 min | 36.10% | 35.4 µL/min/mg | 39.1 min | – | – | – | – | CCC1CCc2cc(Cl)ccc2C1NC(=O)c1ccc(C(F)(F)F)[nH]c1=O (stereo not shown) [Compound 297, N-(6-chloro-2-ethyl-1,2,3,4-tetrahydronaphthalen-1-yl)-2-oxo-6-(trifluoromethyl)-1,2-dihydropyridine-3-carboxamide]
9 | 450 nM | 78.40% | – | – | 96.90% | – | – | < 9.6 µL/min/mg | > 145 min | < 9.6 µL/min/mg | > 145 min | Cc1ccc2c(c1)[C@@H](O)CC[C@H]2NC(=O)c1ccc(C(F)(F)F)[nH]c1=O [Compound 312, N-((1R,4S)-4-hydroxy-6-methyl-1,2,3,4-tetrahydronaphthalen-1-yl)-2-oxo-6-(trifluoromethyl)-1,2-dihydropyridine-3-carboxamide]
10 | 70 nM | 1.70% | 132 µL/min/mg | 10.5 min | 54.30% | 19.4 µL/min/mg | 71.3 min | – | – | – | – | CCCC1=Cc2cc(C)ccc2C1NC(=O)c1ccc(C(F)(F)F)[nH]c1=O (stereo not shown) [Compound 341, N-(5-methyl-2-propyl-1H-inden-1-yl)-2-oxo-6-(trifluoromethyl)-1,2-dihydropyridine-3-carboxamide]
11 | 520 nM | 28.20% | – | – | 28.90% | – | – | 41.2 µL/min/mg | 33.6 min | 35.4 µL/min/mg | 39.1 min | CCC[C@H]1Oc2ccc(C)cc2[C@@H]1NC(=O)c1ccc(C(F)(F)F)[nH]c1=O [Compound 353, N-((2R,3S)-5-methyl-2-propyl-2,3-dihydrobenzofuran-3-yl)-2-oxo-6-(trifluoromethyl)-1,2-dihydropyridine-3-carboxamide]
12 | 460 nM | 1% | – | – | 1.01% | – | – | 154 µL/min/mg | 9 min | 154 µL/min/mg | 9 min | CCC[C@H]1Oc2cc(C)ccc2[C@@H]1NC(=O)c1ccc(C(F)(F)F)[nH]c1=O [Compound 358, N-((2R,3S)-6-methyl-2-propyl-2,3-dihydrobenzofuran-3-yl)-2-oxo-6-(trifluoromethyl)-1,2-dihydropyridine-3-carboxamide]
13 | 300 nM | 60.50% | – | – | 52.90% | – | – | 19.2 µL/min/mg | 72.3 min | 17 µL/min/mg | 82 min | CCC[C@@H]1C[C@@H](NC(=O)c2ccc(C(F)(F)F)[nH]c2=O)c2cc(C)ccc2N1 [Compound 361, N-((2R,4R)-6-methyl-2-propyl-1,2,3,4-tetrahydroquinolin-4-yl)-2-oxo-6-(trifluoromethyl)-1,2-dihydropyridine-3-carboxamide]
14 | 60 nM | 27.30% | – | – | 87% | – | – | < 9.6 µL/min/mg | > 145 min | 44.2 µL/min/mg | 31.3 min | CC[C@@H]1C[C@H](NC(=O)c2ccc(C(F)(F)F)[nH]c2=O)c2ccc(C)cc2N1 [Compound 366, N-((2R,4S)-2-ethyl-7-methyl-1,2,3,4-tetrahydroquinolin-4-yl)-2-oxo-6-(trifluoromethyl)-1,2-dihydropyridine-3-carboxamide]
15 | 370 nM | 51.70% | 23.4 µL/min/mg | 59.3 min | 56.20% | 18.1 µL/min/mg | 76.4 min | – | – | – | – | CCC[C@@H]1C[C@H](NC(=O)c2ccc(C(F)(F)F)[nH]c2=O)c2ccc(C)cc2N1 [Compound 368, N-((2R,4S)-7-methyl-2-propyl-1,2,3,4-tetrahydroquinolin-4-yl)-2-oxo-6-(trifluoromethyl)-1,2-dihydropyridine-3-carboxamide]
16 | 110 nM | 35.70% | 30.8 µL/min/mg | 45 min | 95.30% | – | – | < 9.6 µL/min/mg | > 145 min | – | – | CCC[C@@H]1C[C@@H](NC(=O)c2ccc(C(F)(F)F)[nH]c2=O)c2ccc(C)cc2N1 [Compound 369, N-((2R,4R)-7-methyl-2-propyl-1,2,3,4-tetrahydroquinolin-4-yl)-2-oxo-6-(trifluoromethyl)-1,2-dihydropyridine-3-carboxamide]
